Data taken from patent publication US6600069B2, “Benzene tricarboxylic acid derivatives as insulin receptor activators” (Telik, Inc., priority 2000, dated 2003).

Columns and labels:
[1] = biological target: T1, β-kinase domain of the human insulin receptor (CKD) (Homo sapiens, UniProt P06213); test: 32P-cytoplasmic kinase domain (CKD) autophosphorylation assay; format: biochemical; details: 32P incorporated into CKD band, 10 minutes at room temperature, 50 μM ATP; test concentration not given
T1 construct: The complete β-kinase domain of the human insulin receptor (CKD); made in house
Experimental: ^32P-cytoplasmic Kinase Domain (CKD) Autophosphorylation Assay
The complete β-kinase domain of the human insulin receptor (CKD) was expressed in, and purified from, baculovirus. CKD (4.0 μg/ml), in a solution of 29 mM HEPES (pH 7.6), 0.05% Triton X-100, 10 mM MgCl2, 2 mM MnCl2 (50 μl final volume), was combined with 50 μM ATP, and 5 μCi ^32P-ATP (3000 Ci/mmol.). A test compound, or the vehicle (DMSO), was added to a final DMSO concentration of 1%. The mixture was incubated for 10 minutes at room temperature. The reaction was terminated by the addition of 10 μl of 200 mM EDTA. A 30 μl volume was removed, mixed with 5 μl of 6× Laemmeli sodium dodecyl sulfate (SDS) treatment buffer, and heated to 95° C. for 5 minutes. A 20 μl aliquot was then run on an SDS-PAGE gel. The radioactivity incorporated into the CKD band is quantified by phosphorimaging of the gel, or scintillation counting of the excised bands.
The potency of a compound for increasing phosphorylation is expressed as a percentage of the vehicle level.

[2] = system: 3T3 L1 fibroblasts differentiated to adipocytes; test: Glucose transport activity (14C-2-deoxy-D-glucose uptake); format: cell-based; details: Mus musculus, 3T3-L1; concentration producing increase in glucose transport generally 150% of the vehicle control; insulin 5.6 nM; read-out: Glucose Transport EC (effective concentration)
Experimental: Glucose Transport Activity
3T3 L1 fibroblasts (ATCC) were grown in Dulbecco's modified Eagie's medium (DMEM) with 10% fetal bovine serum (FBS). The cells were plated at a density of 3×10^4 cells/well in 24-well plates. Two days after confluence was reached, the cells were treated for 3 days with […] isobutylmethylxanthine (IBMX), 1 μM dexamethasone, and 1.7 μM insulin. The cells were then transferred to DMEM with 10% fresh bovine serum with 1.7 μM insulin for 2 more days. The cells were maintained in DMEM with 10% FBS for an additional 4 days. Finally the cells were serum starved overnight in 0.1% bovine serum albumin (BSA) in DMEM prior to exposure to the test compounds.
The following day, the medium was replaced with 150 mM NaCl, 1.7 mM KCl, 0.9 mM CaCl2, K2HPO4 (pH 7.4) to which was added either the experimental compounds, or their vehicle (DMSO). Insulin or its vehicle (0.01% BSA) was diluted in the assay buffer (containing test compound or vehicle, respectively) to a final concentration of 5.6 nM. After incubation for 30 min at 37° C., 0.5 μCi/ml of ^14C-2-deoxy-D-glucose was added, and the incubation was continued for additional 30 min at 37° C. The cells were then washed 3 times with ice-cold PBS/20 mM glucose and lysed in 250 μl of lysis buffer (50 mM HEPES pH 7.6, 1% Triton X-100) for 30 min at room temperature. Radioactivity in the lysate was quantified by scintillation counting.
Once ^14C-2-deoxy-D-glucose is transported into the cell it is not released. Glucose transport is, therefore, proportional to the amount of radioactivity in the lysate. The concentration of compound necessary to produce an increase in glucose transport greater than the sum of the standard deviation of the vehicle control plus the largest standard deviation of a test sample (generally 150% of the vehicle control) was recorded as the EC (effective concentration) The results of the glucose transport activity assay are shown in Table 2,

T1 sequence (P06213 980-1382 limits assumed): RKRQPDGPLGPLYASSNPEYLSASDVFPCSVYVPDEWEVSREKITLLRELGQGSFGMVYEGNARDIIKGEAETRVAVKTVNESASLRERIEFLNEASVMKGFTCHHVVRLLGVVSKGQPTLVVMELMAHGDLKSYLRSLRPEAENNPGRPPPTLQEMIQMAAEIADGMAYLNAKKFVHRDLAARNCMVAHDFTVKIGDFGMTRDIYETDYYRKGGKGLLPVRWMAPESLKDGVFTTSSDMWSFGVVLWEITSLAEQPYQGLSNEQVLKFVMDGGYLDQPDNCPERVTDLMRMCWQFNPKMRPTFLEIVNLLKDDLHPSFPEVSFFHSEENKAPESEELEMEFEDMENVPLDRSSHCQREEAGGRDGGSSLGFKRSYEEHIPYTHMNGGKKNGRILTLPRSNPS

Row | CKD phosphorylation (percentage of the vehicle level) [1] [%] | Structure (SMILES) | EC50 [2] [µM]
1 | 97.8 | O=C(O)c1cc(NC(=O)c2cc(C(=O)Nc3cc(C(=O)O)cc(C(=O)O)c3)cc(C(=O)Nc3cc(C(=O)O)cc(C(=O)O)c3)c2)cc(C(=O)O)c1 [Compound 21, 5-({3,5-bis[N-(3,5-dicarboxyphenyl)carbamoyl]phenyl}carbonylamino)benzene-1,3-dicarboxylic acid] | 3.2
2 | 118.1 | O=C(Nc1cccc(C(=O)O)c1C(=O)O)c1cc(C(=O)Nc2cccc(C(=O)O)c2C(=O)O)cc(C(=O)Nc2cccc(C(=O)O)c2C(=O)O)c1 [Compound 22, 3-({3,5-bis[N-(2,3-dicarboxyphenyl)carbamoyl]phenyl}carbonylamino)benzene-1,2-dicarboxylic acid] | 3.2
3 | 87.4 | COC(=O)c1ccccc1NC(=O)c1cc(C(=O)Nc2ccccc2C(=O)OC)cc(C(=O)Nc2ccccc2C(=O)OC)c1 [Compound 23, methyl 2-[(3,5-bis{N-[2-(methoxycarbonyl)phenyl]carbamoyl}phenyl)carbonyl-amino]benzoate] | 1.6
